Measurements published in patent publication US9273014B2, “Bis(fluoroalkyl)-1,4-benzodiazepinone compounds and prodrugs thereof” (Bristol-Myers Squibb Company, priority 2012, dated 2016).

Assays:
[1] = in vitro; settings: human, microsomes, pH 7.4
[2] = target: human Notch 3 (Homo sapiens, UniProt Q9UM47); assay: Notch-CBF1 Transactivation Assay (Notch 3); type: cell-based; settings: HeLa cells co-transfected with truncated Notch 3 and CBF1 luciferase reporter; 18 hours incubation
Description: Notch-CBF1 Transactivation Assay
The Notch-CBF1 (C-promoter binding factor I) cell based transactivation assay is based on the ability of the released Notch intracellular domain fragments (NICDs) to function as transcription factors in conjunction with CBF1 and other nuclear factors. Luciferase assays were used to measure the antagonism of Notch-CBF1 transcriptional activity. HeLa cervical cancer cells are transiently co-transfected with pCDNA3.1/Hygro plasmids containing truncated Notch 1, Notch 2, Notch 3, or Notch 4 receptors and a PGL3 luciferase reporter vector containing 4 copies of CBF1 binding site. The cells were then tested for Notch-CBF1 activity in the absence or presence of test compounds. HeLa cells, maintained in DMEM (high glucose with HEPES), 1× glutamine/penicillin/streptomycin and 10% Fetal Bovine serum, were transiently transfected in a T175 Flask (4.5×10^6 cells/flask) using the Monster Transfection Kit (Minis #MIR2906) according to manufacturers specifications. Table 9 denotes respective DNA quantity for the transfections.
Assay media (5 μL) containing test compounds in final concentrations ranging from 5 μM to 8.4×10^−5 μM (3 fold serial dilutions) were added to the cells and the cell plates were then incubated for 18 hours at 37° C. and 5% CO2. Control wells contained DMSO vehicle (total counts) or 0.5 μM of an in-house small molecule inhibitor (background counts). Duplicates were used for each sample. Luciferase activity was measured after a 20-minute incubation with 50 μl STEADY-GLO® luciferase reagents according to manufacturer's specifications (Promega, Cat. #E2550) and analyzed by Envision plate reader (PerkinElmer, Boston, Mass.).
The antagonist effect of compounds was expressed as 100×[1−(average sample-average background)/(average total−average background)] where sample is the luciferase activity in the presence of test compound, background is equal to the luciferase activity in the presence of the small molecule inhibitor control and the total is signal induced in DMSO wells.

Chain of human Notch 3 (Q9UM47 40-2321 limits assumed): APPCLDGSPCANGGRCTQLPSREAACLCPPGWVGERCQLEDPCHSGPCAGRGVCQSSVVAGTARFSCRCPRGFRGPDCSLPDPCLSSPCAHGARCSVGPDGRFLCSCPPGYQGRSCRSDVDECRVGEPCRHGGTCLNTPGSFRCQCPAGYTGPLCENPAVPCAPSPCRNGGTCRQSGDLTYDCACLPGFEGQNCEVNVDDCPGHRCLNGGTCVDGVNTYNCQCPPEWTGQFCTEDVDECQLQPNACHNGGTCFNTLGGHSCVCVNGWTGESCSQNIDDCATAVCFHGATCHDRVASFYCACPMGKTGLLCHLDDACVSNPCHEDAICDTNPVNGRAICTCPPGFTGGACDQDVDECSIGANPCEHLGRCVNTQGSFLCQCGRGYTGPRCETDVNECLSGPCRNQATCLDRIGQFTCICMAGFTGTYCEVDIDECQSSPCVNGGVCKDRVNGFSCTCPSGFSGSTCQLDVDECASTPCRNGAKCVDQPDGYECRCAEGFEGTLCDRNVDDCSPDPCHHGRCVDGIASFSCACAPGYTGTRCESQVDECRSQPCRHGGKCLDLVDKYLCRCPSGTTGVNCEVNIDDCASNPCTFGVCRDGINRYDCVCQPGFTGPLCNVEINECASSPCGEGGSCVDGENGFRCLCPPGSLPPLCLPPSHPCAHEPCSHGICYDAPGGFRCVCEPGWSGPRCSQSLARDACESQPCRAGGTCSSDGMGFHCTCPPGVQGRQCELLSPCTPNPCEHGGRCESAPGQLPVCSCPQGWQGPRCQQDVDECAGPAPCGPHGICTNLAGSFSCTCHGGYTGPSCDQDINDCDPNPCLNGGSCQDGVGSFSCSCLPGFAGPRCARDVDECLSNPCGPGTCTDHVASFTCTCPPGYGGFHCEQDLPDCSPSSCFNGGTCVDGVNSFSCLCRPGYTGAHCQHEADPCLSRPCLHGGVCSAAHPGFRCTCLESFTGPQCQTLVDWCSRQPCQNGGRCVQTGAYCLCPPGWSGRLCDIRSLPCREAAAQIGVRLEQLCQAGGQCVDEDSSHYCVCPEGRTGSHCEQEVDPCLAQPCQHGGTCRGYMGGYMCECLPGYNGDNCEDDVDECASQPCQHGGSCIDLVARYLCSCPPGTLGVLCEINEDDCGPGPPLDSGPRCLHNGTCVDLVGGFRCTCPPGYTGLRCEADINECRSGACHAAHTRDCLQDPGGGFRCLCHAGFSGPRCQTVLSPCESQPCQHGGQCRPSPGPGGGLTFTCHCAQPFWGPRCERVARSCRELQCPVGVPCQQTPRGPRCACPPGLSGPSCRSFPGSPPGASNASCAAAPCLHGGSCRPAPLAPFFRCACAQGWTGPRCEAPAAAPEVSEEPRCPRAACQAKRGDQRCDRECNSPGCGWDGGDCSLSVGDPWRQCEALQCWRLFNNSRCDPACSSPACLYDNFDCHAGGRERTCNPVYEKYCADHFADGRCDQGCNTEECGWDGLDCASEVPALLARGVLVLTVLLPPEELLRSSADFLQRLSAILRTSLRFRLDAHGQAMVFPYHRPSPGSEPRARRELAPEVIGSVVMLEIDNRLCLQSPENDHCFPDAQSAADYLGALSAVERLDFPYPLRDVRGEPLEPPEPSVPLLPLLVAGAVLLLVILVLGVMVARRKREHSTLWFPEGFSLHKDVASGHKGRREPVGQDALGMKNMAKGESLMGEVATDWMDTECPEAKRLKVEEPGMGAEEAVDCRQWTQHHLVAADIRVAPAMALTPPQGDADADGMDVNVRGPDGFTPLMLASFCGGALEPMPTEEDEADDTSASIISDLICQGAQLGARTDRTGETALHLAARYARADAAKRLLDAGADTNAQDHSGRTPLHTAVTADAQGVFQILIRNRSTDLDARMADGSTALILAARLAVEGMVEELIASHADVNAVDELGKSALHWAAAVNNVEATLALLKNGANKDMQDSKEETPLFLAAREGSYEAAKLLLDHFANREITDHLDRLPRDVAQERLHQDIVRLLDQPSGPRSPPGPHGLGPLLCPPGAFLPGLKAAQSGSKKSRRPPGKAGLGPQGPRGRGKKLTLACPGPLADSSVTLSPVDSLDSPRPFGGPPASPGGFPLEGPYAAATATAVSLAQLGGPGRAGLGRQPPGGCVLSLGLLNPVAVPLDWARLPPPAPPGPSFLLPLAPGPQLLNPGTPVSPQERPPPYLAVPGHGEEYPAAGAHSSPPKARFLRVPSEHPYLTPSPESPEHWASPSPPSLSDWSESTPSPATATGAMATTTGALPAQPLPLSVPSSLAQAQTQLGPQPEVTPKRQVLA

SMILES | half-life [1] | IC50 [2]
CCC[C@H](C(N)=O)[C@@H](CC(C)C)C(=O)N[C@H]1N=C(c2ccccc2)c2ccccc2N(C)C1=O [Comparative Compound 45, reference compound] | 8 min | 
C=CC[C@H](C(N)=O)[C@@H](CC(C)C)C(=O)N[C@H]1N=C(c2ccccc2)c2cc(Cl)ccc2N(C)C1=O [Comparative Compound 46, reference compound] | 6 min | 
CCCC[C@H](C(N)=O)[C@@H](CC(C)C)C(=O)N[C@H]1N=C(c2ccc(Cl)cc2)c2ccccc2N(C)C1=O [Comparative Compound 47, reference compound] | 6 min | 
C=CC[C@H](C(N)=O)[C@@H](CC(C)C)C(=O)N[C@H]1N=C(c2ccccc2)c2ccccc2N(CCC)C1=O [Comparative Compound 48, reference compound] | 3 min | 
CCc1cccc2c1NC(=O)[C@@H](NC(=O)[C@H](CCC(F)(F)F)[C@H](CCC(F)(F)F)C(N)=O)N=C2c1cccc(Cl)c1 [Example 2, (2R,3S)—N-((3S)-5-(3-Chlorophenyl)-9-ethyl-2-oxo-2,3-dihydro-1H-1,4-benzodiazepin-3-yl)-2,3-bis(3,3,3-trifluoropropyl)succinamide] | 32 min | 4.3 nM
Cc1ccc(C2=N[C@H](NC(=O)[C@H](CCC(F)(F)F)[C@H](CCCC(F)(F)F)C(N)=O)C(=O)Nc3c(Cl)cccc32)cc1C [Example 4, (2R,3S)—N-(9-Chloro-5-(3,4-dimethylphenyl)-2-oxo-2,3-dihydro-1H-1,4-benzodiazepin-3-yl)-3-(4,4,4-trifluorobutyl)-2-(3,3,3-trifluoropropyl)succinamide] | 31 min | 7.3 nM
Cc1cc(C)cc(C2=N[C@H](NC(=O)[C@H](CCC(F)(F)F)[C@H](CCCC(F)(F)F)C(N)=O)C(=O)Nc3c(Cl)cccc32)c1 [Example 5, (2R,3S)—N-(9-Chloro-5-(3,5-dimethylphenyl)-2-oxo-2,3-dihydro-1H-1,4-benzodiazepin-3-yl)-3-(4,4,4-trifluorobutyl)-2-(3,3,3-trifluoropropyl)succinamide] | 33 min | 4 nM
CCc1cccc2c1NC(=O)[C@@H](NC(=O)[C@H](CCC(F)(F)F)[C@H](CCC(F)(F)F)C(N)=O)N=C2c1cccc(C)c1 [Example 6, (2R,3S)—N-((3S)-9-Ethyl-5-(3-methylphenyl)-2-oxo-2,3-dihydro-1H-1,4-benzodiazepin-3-yl)-2,3-bis(3,3,3-trifluoropropyl)succinamide] | 33 min | 4.5 nM
Cc1cccc2c1NC(=O)[C@@H](NC(=O)[C@H](CCC(F)(F)F)[C@H](CCC(F)(F)F)C(N)=O)N=C2c1cccc(Cl)c1 [Example 7, (2R,3S)—N-((3S)-5-(3-Chlorophenyl)-9-methyl-2-oxo-2,3-dihydro-1H-1,4-benzodiazepin-3-yl)-2,3-bis(3,3,3-trifluoropropyl)succinamide] | > 120 min | 
Cc1cccc2c1NC(=O)[C@@H](NC(=O)[C@H](CCC(F)(F)F)[C@H](CCCC(F)(F)F)C(N)=O)N=C2c1cccc(Cl)c1 [Example 8, (2R,3S)—N-((3S)-5-(3-Chlorophenyl)-9-methyl-2-oxo-2,3-dihydro-1H-1,4-benzodiazepin-3-yl)-3-(4,4,4-trifluorobutyl)-2-(3,3,3-trifluoropropyl)succinamide] | 71 min | 11.6 nM
Cc1cccc(C2=N[C@H](NC(=O)[C@H](CCC(F)(F)F)[C@H](CCC(F)(F)F)C(N)=O)C(=O)Nc3c2cccc3C(F)(F)F)c1 [Example 9, (2R,3S)—N-((3S)-5-(3-Methylphenyl)-2-oxo-9-(trifluoromethyl)-2,3-dihydro-1H-1,4-benzodiazepin-3-yl)-2,3-bis(3,3,3-trifluoropropyl)succinamide] | 113 min | 3.7 nM
Cc1cccc(C2=N[C@H](NC(=O)[C@H](CCC(F)(F)F)[C@H](CCCC(F)(F)F)C(N)=O)C(=O)Nc3c2cccc3C(F)(F)F)c1 [Example 11, (2R,3S)—N-((3S)-5-(3-Methylphenyl)-2-oxo-9-(trifluoromethyl)-2,3-dihydro-1H-1,4-benzodiazepin-3-yl)-3-(4,4,4-trifluorobutyl)-2-(3,3,3-trifluoropropyl)succinamide] | 42 min | 
CC(C)c1cccc2c1NC(=O)[C@@H](NC(=O)[C@H](CCC(F)(F)F)[C@H](CCC(F)(F)F)C(N)=O)N=C2c1ccccc1 [Example 13, (2R,3S)—N-((3S)-9-Isopropyl-2-oxo-5-phenyl-2,3-dihydro-1H-1,4-benzodiazepin-3-yl)-2,3-bis(3,3,3-trifluoropropyl)succinamide] | 48 min | 
Cc1cccc(C2=N[C@H](NC(=O)[C@H](CCC(F)(F)F)[C@H](CCCC(F)(F)F)C(N)=O)C(=O)Nc3c(OC4CC4)cccc32)c1 [Example 14, (2R,3S)—N-((3S)-9-(Cyclopropyloxy)-5-(3-methylphenyl)-2-oxo-2,3-dihydro-1H-1,4-benzodiazepin-3-yl)-3-(4,4,4-trifluorobutyl)-2-(3,3,3-trifluoropropyl)succinamide] | 56 min | 
Cc1cccc(C2=N[C@H](NC(=O)[C@H](CCC(F)(F)F)[C@H](CCC(F)(F)F)C(N)=O)C(=O)Nc3c(OC4CC4)cccc32)c1 [Example 15, (2R,3S)—N-((3S)-9-(Cyclopropyloxy)-5-(3-methylphenyl)-2-oxo-2,3-dihydro-1H-1,4-benzodiazepin-3-yl)-2,3-bis(3,3,3-trifluoropropyl)succinamide] | 101 min | 
COc1cccc2c1NC(=O)[C@@H](NC(=O)[C@H](CCC(F)(F)F)[C@H](CCC(F)(F)F)C(N)=O)N=C2c1cccc(C)c1 [Example 29, (2R,3S)—N-((3S)-5-(3-Methylphenyl)-9-methoxy-2-oxo-2,3-dihydro-1H-1,4-benzodiazepin-3-yl)-2,3-bis(3,3,3-trifluoropropyl)succinamide] | 98 min | 
NC(=O)[C@@H](CCC(F)(F)F)[C@@H](CCC(F)(F)F)C(=O)N[C@H]1N=C(c2ccc(CO)cc2)c2ccccc2NC1=O [Example 30, (2R,3S)—N-((3S)-5-(4-(Hydroxymethyl)phenyl)-2-oxo-2,3-dihydro-1H-1,4-benzodiazepin-3-yl)-2,3-bis(3,3,3-trifluoropropyl)succinamide] | 92 min | 
Cc1cccc(C2=N[C@H](NC(=O)[C@H](CCC(F)(F)F)[C@H](CCC(F)(F)F)C(N)=O)C(=O)Nc3ccccc32)c1 [Example 32, (2R,3S)—N-((3S)-5-(3-Methylphenyl)-2-oxo-2,3-dihydro-1H-1,4-benzodiazepin-3-yl)-2,3-bis(3,3,3-trifluoropropyl)succinamide] | 82 min | 
COc1cccc2c1NC(=O)[C@@H](NC(=O)[C@H](CCC(F)(F)F)[C@H](CCC(F)(F)F)C(N)=O)N=C2c1ccc(Cl)cn1 [Example 34, (2R,3S)—N-((3S)-5-(5-Chloro-2-pyridinyl)-9-methoxy-2-oxo-2,3-dihydro-1H-1,4-benzodiazepin-3-yl)-2,3-bis(3,3,3-trifluoropropyl)succinamide] | 116 min | 
COc1ccc(C2=N[C@H](NC(=O)[C@H](CCC(F)(F)F)[C@H](CCC(F)(F)F)C(N)=O)C(=O)Nc3ccccc32)cc1 [Example 35, (2R,3S)—N-((3S)-5-(4-Methoxyphenyl)-2-oxo-2,3-dihydro-1H-1,4-benzodiazepin-3-yl)-2,3-bis(3,3,3-trifluoropropyl)succinamide] | 118 min | 
